Reference: patent publication US20250073169A1, “POLYMER NANOPARTICLES VIA CONDENSED DROPLET POLYMERIZATION” (CORNELL UNIVERSITY, priority 2021, published 2025)

Experiment: Static contact angle of liquid monomer on coated substrate (goniometer)
Assay type: physicochemical
Protocol: Contact angle and aspect ratio analysis: Contact angle measurements were performed using a Ramé-Hart Model 500 contact angle goniometer. A pipette was used to dispense 5 μL of liquid HEMA, 4VP, and DVB onto the substrate for static contact angle measurements.

[1] = 5 μL liquid monomer on flattened PPFDA base layer, n=5

Row | Compound | contact angle (5 μL liquid monomer on PDVB thin film coated substrate, n=4) [°] | contact angle [1] [°]
1 | C=C(C)C(=O)OCCO [HEMA, 2-hydroxyethyl methacrylate] | 18.5±1.1 | 86.4±1.0
2 | C=Cc1ccncc1 [4VP, 4-vinylpyridine] |  | 80.6±1.7
3 | divinylbenzene [DVB] |  | 86.5±1.6
